Test [1] deals with T1, HsTRPA1 (Homo sapiens, UniProt O75762).
T1 construct: gene TRPA1; cDNA construct from Saito and Tominaga, cRNA injected into Xenopus laevis oocytes; UniProt id printed for the modelled HsTRPA1 (residues 401-1119)
Kind of test: two-electrode voltage clamp, Xenopus oocytes. Type of test: cell-based. The settings on record: agonist, ND96 pH 7.5. In general terms: In two-electrode clamp one electrode senses voltage and the other passes current.

Test [2] addresses T1, HsTRPA1. In words: two-electrode voltage clamp, Xenopus oocytes. Type of test: cell-based.

T1 sequence (O75762 whole entry, the tested form may be a part): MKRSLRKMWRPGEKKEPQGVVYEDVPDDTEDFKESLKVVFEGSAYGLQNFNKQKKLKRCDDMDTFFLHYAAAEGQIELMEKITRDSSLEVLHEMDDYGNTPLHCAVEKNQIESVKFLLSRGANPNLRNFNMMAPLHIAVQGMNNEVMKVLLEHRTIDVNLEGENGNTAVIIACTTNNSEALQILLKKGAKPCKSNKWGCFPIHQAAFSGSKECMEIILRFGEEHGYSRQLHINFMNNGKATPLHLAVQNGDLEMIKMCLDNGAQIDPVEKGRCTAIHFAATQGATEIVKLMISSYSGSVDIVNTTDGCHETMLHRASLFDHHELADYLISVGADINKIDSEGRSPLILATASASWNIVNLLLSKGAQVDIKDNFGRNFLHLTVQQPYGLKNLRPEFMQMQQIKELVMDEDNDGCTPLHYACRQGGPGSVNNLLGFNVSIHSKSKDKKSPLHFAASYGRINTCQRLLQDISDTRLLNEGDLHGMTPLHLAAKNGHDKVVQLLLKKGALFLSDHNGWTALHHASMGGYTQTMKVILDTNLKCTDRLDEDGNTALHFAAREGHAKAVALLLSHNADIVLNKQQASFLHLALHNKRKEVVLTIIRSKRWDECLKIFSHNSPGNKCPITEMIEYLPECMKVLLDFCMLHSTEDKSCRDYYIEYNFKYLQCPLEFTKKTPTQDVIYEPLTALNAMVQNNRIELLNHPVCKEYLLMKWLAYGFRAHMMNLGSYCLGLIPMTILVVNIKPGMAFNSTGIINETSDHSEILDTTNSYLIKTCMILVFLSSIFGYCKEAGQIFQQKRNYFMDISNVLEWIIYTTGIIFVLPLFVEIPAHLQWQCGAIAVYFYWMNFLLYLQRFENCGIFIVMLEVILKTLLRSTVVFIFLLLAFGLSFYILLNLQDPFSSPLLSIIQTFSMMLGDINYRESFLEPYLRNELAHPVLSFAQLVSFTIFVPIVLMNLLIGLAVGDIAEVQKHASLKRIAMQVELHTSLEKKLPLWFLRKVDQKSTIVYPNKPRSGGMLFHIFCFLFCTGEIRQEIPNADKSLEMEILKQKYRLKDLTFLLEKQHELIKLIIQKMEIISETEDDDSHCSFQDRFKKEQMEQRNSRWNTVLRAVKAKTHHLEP

On to `CC1=COC(=O)C2C(C)CCC12` (stereo not drawn) [nepetalactone], for which, at HsTRPA1 [1], the “% by which ΔIm at 1000 μM is lower than that of 10 μM CDIAL” value was 98.8 ± 0.46%. What is called EC50 is the concentration needed to bring the measured effect to its halfway point. Read a high EC50 as weaker potency. For `COCCCN(C(=O)CCl)c1nc(-c2ccc(OC)cc2)cs1` [JT010], a half-maximal effect on HsTRPA1 [2] (EC50) was put at 800 nM. Still for that read-out and setting: for `CC(=O)O[C@@H]1C=C(C=O)[C@](O)(C=O)[C@@]2(C)CCCC(C)(C)[C@H]12` [CDIAL] the value was 2250 nM.

The values above are taken from paper doi:10.64898/2025.12.09.693172, “Agonism of mosquito and human transient receptor potential ankyrin 1 (TRPA1) channels by the natural drimane sesquiterpene cinnamodial” (bioRxiv, 2025).
